What was measured:
MV4-11 cells = assay: Inhibition of proliferation of MV4-11 cells (CellTiter-Glo); format: cell-based; conditions: Homo sapiens, 72 h
Protocol: Specific experimental steps: 1) Day 0: 96 inoculated cells were digested with trypsin and suspended in cell culture medium, the cell density was detected by an automatic cell counter and the cells were diluted with the culture medium to a suitable density, 100 μL of cell suspension was added to the 96-well plate, and the cell-free medium was used as a control well, and the wells were incubated in a 37° C., 5% CO2 cell incubator overnight; 2) Day 1: A total of 8 concentrations of the compound to be tested in the drug-treated cells were tested at 3-fold dilution, 10 μM was the starting assay concentration of the compound to be tested. Specific steps: 200× compound mother liquor was prepared, the compound was diluted with culture medium to a final concentration of […], that is, 3 μL of 200× compound was added to 197 μL of culture medium, 50 μL diluted compound was added to each well of the 96-well plate, and placed at 37° C., 5% CO2 cell culture incubator for 72 h; 3) Day 4: Cell viability detection: 96-well cell plate was first equilibrated to room temperature, 40 μL of CellTiter-Glo® reagent was added to each well, mixed on a shaker for 2 minutes to fully lyse the cells, incubated at room temperature for 10 minutes to stabilize the luminescence signal, and the luminescence value was read by the Envision microplate reader; 4) data processing was performed by GraphPad Prism 5.0 software to analyze the data, and nonlinear S-curve regression was used to fit the data to obtain a dose-effect curve, and from which the ICso value was calculated. Inhibition rate %=(DMSO treated cell wells−compound treated cell wells)/(DMSO treated cell wells−cell free medium wells)×100. The ICso value was obtained by the four-parameter regression method using the random software in the microplate reader. (See Table 2 for specific values)

BRD4-BD1 = target: T1, BRD4-BD1 (Homo sapiens, UniProt O60885); assay: BRD4 AlphaScreen determination (BD1); format: binding; conditions: AlphaScreen, protein binding inhibition; read-out: BRD4-BD1 IC50
T1 construct: purchased ReactionBiologyCorp; (RBC)
Protocol: (§1) (1) 1× Assay buffer was prepared according to the kit requirements of ReactionBiologyCorp. (RBC). (2) Compound concentration gradient preparation: the test compounds were tested at final concentrations starting at 10 μM, with 10 concentrations at 3-fold dilution and single well test was set for each concentration. The positive control compound(+)-JQ-1 was tested at final concentrations starting at 1 μM, with 10 concentrations at 3-fold dilution, and duplicated well test was set for each concentration. The solution was gradient diluted to the corresponding 1000-fold final concentration in a 384-well Source plate, and then 20 nL of the solution was transferred to the 384-well reaction plate with Echo550 to be measured. 20 nL of 100% DMSO was transferred to the Max well, and the highest concentration of the positive compounds were transferred to the Min wells. […] (6) 5 μL of 4× peptide solution was added to each well of the reaction plate, centrifuged at 1000 rpm for 1 min. (7) 10 μL of the assay solution was added, centrifuged at 1000 rpm for 60 seconds, the solution was mixed with gentle shaking, and incubated at room temperature for 60 minutes. (8) Reading with EnVision. (9) The IC50 values of the compounds for protein binding inhibition was obtained by fitting the dose-effect curve with the analytical software GraphPad Prism 5. (See Table 1 for specific values)

BRD4-BD2 = target: T2, BRD4-BD2 (Homo sapiens, UniProt O60885); assay: BRD4 AlphaScreen determination (BD2); format: binding; conditions: AlphaScreen, protein binding inhibition; read-out: BRD4-BD2 IC50
T2 construct: purchased ReactionBiologyCorp; (RBC)
Protocol: as §1

Row | SMILES | IC50 (MV4-11 cells) [nM] | IC50 (BRD4-BD1) [nM] | IC50 (BRD4-BD2) [nM]
1 | Cc1cc(F)cc(C)c1Oc1ccc(C(C)(C)O)cc1-c1cn(C)c(=O)c2cc(C(=O)NCCCCNC(=O)COc3cccc4c3C(=O)N(C3CCC(=O)NC3=O)C4=O)[nH]c12 (centres unmarked) [Embodiment 5, N-(4-(2-((2-(2,6-dioxopiperidin-3-yl)-1,3-dioxoisoindolin-4-yl)oxo)acetamido)butyl)-7-(2-(4-fluoro-2,6-dimethylphenoxy)-5-(2-hydroxyprop-2-yl)phenyl)-5-methyl-4-oxo-4,5-dihydro-1H-pyrrolo[3,2-c]pyridine-2-amide] | < 1.5 |  | 
2 | Cc1cc(F)cc(C)c1Oc1ccc(C(C)(C)O)cc1-c1cn(C)c(=O)c2cc(C(=O)NCCCC#Cc3cccc4c3CN(C3CCC(=O)NC3=O)C4=O)[nH]c12 (centres unmarked) [Embodiment 3, N-(5-(2-(2,6-dioxopiperidin-3-yl)-1-oxoisoindolin-4-yl)pent-4-yn-1-yl)-7-(2-(4-fluoro-2,6-dimethylphenoxy)-5-(2-hydroxyprop-2-yl)phenyl)-5-methyl-4-oxo-4,5-dihydro-1H-pyrrolo[3,2-c]pyridine-2-amide] | < 1.5 |  | 
3 | Cc1cc(F)cc(C)c1Oc1ccc(C(C)(C)O)cc1-c1cn(C)c(=O)c2cc(C(=O)NCCCCCc3cccc4c3CN(C3CCC(=O)NC3=O)C4=O)[nH]c12 (centres unmarked) [Embodiment 4, N-(5-(2-(2,6-dioxopiperidin-3-yl)-1-oxoisoindolin-4-yl)pentyl)-7-(2-(4-fluoro-2,6-dimethylphenoxy)-5-(2-hydroxyprop-2-yl)phenyl)-5-methyl-4-oxo-4,5-dihydro-1H-pyrrolo[3,2-c]pyridine-2-amide] | < 1.5 |  | 
4 | Cc1cc(F)cc(C)c1Oc1ccc(C(C)(C)O)cc1-c1cn(C)c(=O)c2cc(C(=O)NCCCOCCOCCOCCCNc3cccc4c3C(=O)N(C3CCC(=O)NC3=O)C4=O)[nH]c12 (centres unmarked) [Embodiment 6, N-(3-(2-(2-(3-((2-(2,6-dioxopiperidin-3-yl)-1,3-dioxoisoindolin-4-yl)amino)propoxy)ethoxy)ethoxy)propyl)-7-(2-(4-fluoro-2,6-dimethylphenoxy)-5-(2-hydroxyprop-2-yl)phenyl)-5-methyl-4-oxo-4,5-dihydro-1H-pyrrole[3,2-c]pyridine-2-amide] | 10.2 |  | 
5 | Cc1cc(F)cc(C)c1Oc1ccc(C(C)(C)O)cc1-c1cn(C)c(=O)c2cc(C(=O)NC3CC3)[nH]c12 [Embodiment 16, N-cyclopropyl-7-(2-(4-fluoro-2,6-dimethylphenoxy)-5-(2-hydroxyprop-2-yl)phenyl)-5-methyl-4-oxo-4,5-dihydro-1H-pyrrolo[3,2-c]pyridine-2-amide] | 7.95 | 93 | < 0.5
6 | Cc1cc(F)cc(C)c1Oc1ccc(C(C)(C)O)cc1-c1cn(C)c(=O)c2cc(C(=O)NCC(F)(F)F)[nH]c12 [Embodiment 14, 7-(2-(4-fluoro-2,6-dimethylphenoxy)-5-(2-hydroxyprop-2-yl)phenyl)-5-methyl-4-oxo-N-(2,2,2-trifluoroethyl)-4,5-dihydro-1H-pyrrolo[3,2-c]pyridine-2-amide] | 31.3 | 219 | < 0.5
7 | Cc1cc(F)cc(C)c1Oc1ccc(C(C)(C)O)cc1-c1cn(C)c(=O)c2cc(C(=O)N3CCC3)[nH]c12 [Embodiment 17, 2-(azetidine-1-carbonyl)-7-(2-(4-fluoro-2,6-dimethylphenoxy)-5-(2-hydroxyprop-2-yl)phenyl)-5-methyl-1,5-dihydro-4H-pyrrolo[3,2-c] pyridin-4-one] | 248 | 233 | 7.4
8 | Cc1cc(F)cc(C)c1Oc1ccc(C(C)(C)O)cc1-c1cn(C)c(=O)c2cc(C(=O)N3CC(F)(F)C3)[nH]c12 [Embodiment 19, 2-(3,3-difluoroazetidine-1-carbonyl)-7-(2-(4-fluoro-2,6-dimethylphenoxy)-5-(2-hydroxyprop-2-yl)phenyl)-5-methyl-1,5-dihydro-4H-pyrrolo[3,2-c]pyridin-4-one] | 147 | 292 | 2.8
9 | Cc1cc(F)cc(C)c1Oc1ccc(C(C)(C)O)cc1-c1cn(C)c(=O)c2cc(C(=O)NCCS(C)(=O)=O)[nH]c12 [Embodiment 10, 7-(2-(4-fluoro-2,6-dimethylphenoxy)-5-(2-hydroxyprop-2-yl)phenyl)-N-(2-methylsulfonyl)-4-oxo-4,5-dihydro-1H-pyrrolo pyridine-2-amide] | 19.8 | 58 | 0.69
10 | Cc1cc(F)cc(C)c1Oc1ccc(C(C)(C)O)cc1-c1cn(C)c(=O)c2cc(C(=O)NCC3CC3)[nH]c12 [Embodiment 12, N-(cyclopropylmethyl)-7-(2-(4-fluoro-2,6-dimethylphenoxy)-5-(2-hydroxyprop-2-yl)phenyl)-5-methyl-4-oxo-4,5-dihydro-1H-pyrrolo[3,2-c]pyridine-2-amide] | 12.7 | 50 | < 0.5
11 | Cc1cc(F)cc(C)c1Oc1ccc(C(C)(C)O)cc1-c1cn(C)c(=O)c2cc(C(=O)NC(C)C)[nH]c12 [Embodiment 13, 7-(2-(4-fluoro-2,6-dimethylphenoxy)-5-(2-hydroxyprop-2-yl)phenyl)-N-isopropyl-5-methyl-4-oxo-4,5-dihydro-1H-pyrrolo[3,2-c]pyridine-2-amide] | 6.6 | 79 | < 0.5
12 | Cc1cc(F)cc(C)c1Oc1ccc(C(C)(C)O)cc1-c1cn(C)c(=O)c2cc(C(=O)NCC#N)[nH]c12 [Embodiment 15, N-(cyanomethyl)-7-(2-(4-fluoro-2,6-dimethylphenoxy)-5-(2-hydroxyprop-2-yl)phenyl)-5-methyl-4-oxo-4,5-dihydro-1H-pyrrolo[3,2-c] pyridine-2-amide] | 33.3 | 81 | < 0.5
13 | COCCNC(=O)c1cc2c(=O)n(C)cc(-c3cc(C(C)(C)O)ccc3Oc3c(C)cc(F)cc3C)c2[nH]1 [Embodiment 9, 7-(2-(4-fluoro-2,6-dimethylphenoxy)-5-(2-hydroxyprop-2-yl)phenyl)-N-(2-methoxyethyl)-5-methyl-4-oxo-4,5-dihydro-1H-pyrrolo[3,2-c]pyridine-2-amide] | 19.8 | 37 | 0.51
14 | CCNC(=O)c1cc2c(=O)n(C)cc(-c3cc(S(C)(=O)=O)cc4c3OC(C)(C)C(=O)N4C)c2[nH]1 [Embodiment 2, N-ethyl-5-methyl-4-oxo-7-(2,2,4-trimethyl-6-(methylsulfonyl)-3-oxo-3,4-dihydro-2H-benzo[b][1,4]oxazin-8-yl)-4,5-dihydro-1H-pyrrolo[3,2-c]pyridine-2-amide] | 64 | 36 | 1.2
15 | CN1C(=O)C(C)(C)Oc2c(-c3cn(C)c(=O)c4cc(C(=O)NCCOCCOCCOCCC(=O)Nc5cccc6c5C(=O)N(C5CCC(=O)NC5=O)C6=O)[nH]c34)cc(S(C)(=O)=O)cc21 (centres unmarked) [Embodiment 7, N-(2-(2-(2-(3-((2-(2,6-dioxopiperidin-3-yl)-1,3-dioxoisoindolin-4-yl)amino)-3-oxo-n-propoxy)ethoxy)ethoxy)ethyl)-5-methyl-4-oxo-7-(2,2,4-trimethyl-6-(methylsulfonyl)-3-oxo-3,4-dihydro-2H-benzo[b] [1,4]oxazin-8-yl)-4,5-dihydro-1H-pyrrolo[3,2-c]pyridine-2-amide] | < 1.5 |  | 
16 | Cc1cc(F)cc(C)c1Oc1ccc(C(C)(C)O)cc1-c1cn(C)c(=O)c2cc(C(=O)NC(CF)CF)[nH]c12 [Embodiment 20, N-(1,3-difluoropropyl-2-yl)-7-(2-(4-fluoro-2,6-dimethylphenoxy)-5-(2-hydroxyprop-2-yl)phenyl)-5-methyl-4-oxo-4,5-dihydro-1H-pyrrolo[3,2-c]pyridine-2-amide] | 4.8 | 98 | < 0.51

From US12459939B2 (SHANGHAI RINGENE BIOPHARMA CO., LTD., priority 2019, dated 2025)
